Reference: patent US10149838B2, “Small molecule securinine and norsecurinine analogs and their use in inhibiting myeloperoxidase” (MiRx Pharmaceuticals, LLC, priority 2013, dated 2018)

Assays:
[1] = target: T1, MPO (Homo sapiens, UniProt P05164); test: MALDI-TOF analysis of heme and heme/compound conjugate in presence of H2O2; assay type: binding; set-up: purchased Cayman Chemical 700170
T1 sequence (P05164 49-745): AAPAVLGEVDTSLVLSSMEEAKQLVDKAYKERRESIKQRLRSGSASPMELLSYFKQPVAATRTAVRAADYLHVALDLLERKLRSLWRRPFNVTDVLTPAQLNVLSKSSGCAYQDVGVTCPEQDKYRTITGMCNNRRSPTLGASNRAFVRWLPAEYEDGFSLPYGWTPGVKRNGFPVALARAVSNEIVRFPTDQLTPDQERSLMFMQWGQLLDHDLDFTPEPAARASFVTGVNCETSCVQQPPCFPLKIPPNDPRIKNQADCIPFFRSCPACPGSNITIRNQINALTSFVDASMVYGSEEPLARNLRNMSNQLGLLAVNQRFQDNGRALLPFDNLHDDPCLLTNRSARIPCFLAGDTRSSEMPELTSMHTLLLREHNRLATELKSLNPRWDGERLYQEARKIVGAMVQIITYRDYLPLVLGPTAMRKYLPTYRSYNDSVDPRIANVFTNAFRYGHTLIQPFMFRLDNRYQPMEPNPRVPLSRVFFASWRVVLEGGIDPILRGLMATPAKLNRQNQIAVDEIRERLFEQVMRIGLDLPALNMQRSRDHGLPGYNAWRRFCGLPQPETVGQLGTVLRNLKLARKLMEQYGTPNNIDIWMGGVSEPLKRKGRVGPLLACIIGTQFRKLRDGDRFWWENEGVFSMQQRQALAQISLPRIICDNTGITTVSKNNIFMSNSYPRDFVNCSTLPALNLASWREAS
Protocol: (§1) Only MPO (red) and H2O2 promoted a shift in the Soret peak, formation of a new band at 630 nm (blue).
To determine the binding motif/active site of MPO and the compound of interest, a computational docking analysis using a 2.5 A crystal structure (PDB id 3ZSO) was performed. The heme ‘m’ in myeloperoxidase contains two ester bonds at the heme 1 and 5-methyls. In addition, a unique sulfonium ion linkage was observed. […] An inhibitory action of the myeloperoxidase is predicted when such covalent links are formed. Especially docking position of 184B unique and have visible effect on the Hisitidine 336 coordinated iron (FIG. 6E). These docking results explain the observed effects of 184B on the soret peak (˜433). Further MALDI-TOF analysis of heme (un conjugated) and heme/184B conjugated (in presence of H2O2) complexes are liberated from protein and analyzed ions with an ˜m/z>1040, which would be the mass of conjugated heme and 184B compare to unconjugated control only heme (m/z˜694) (FIG. 6F).

[2] = target: T2, thyroid peroxidase (Homo sapiens, UniProt P07202); test: Oxidation of ascorbate by thyroid peroxidase and iodide (iodination activity); assay type: biochemical; settings: 10 μM, iodide
T2 sequence (P07202 19-933): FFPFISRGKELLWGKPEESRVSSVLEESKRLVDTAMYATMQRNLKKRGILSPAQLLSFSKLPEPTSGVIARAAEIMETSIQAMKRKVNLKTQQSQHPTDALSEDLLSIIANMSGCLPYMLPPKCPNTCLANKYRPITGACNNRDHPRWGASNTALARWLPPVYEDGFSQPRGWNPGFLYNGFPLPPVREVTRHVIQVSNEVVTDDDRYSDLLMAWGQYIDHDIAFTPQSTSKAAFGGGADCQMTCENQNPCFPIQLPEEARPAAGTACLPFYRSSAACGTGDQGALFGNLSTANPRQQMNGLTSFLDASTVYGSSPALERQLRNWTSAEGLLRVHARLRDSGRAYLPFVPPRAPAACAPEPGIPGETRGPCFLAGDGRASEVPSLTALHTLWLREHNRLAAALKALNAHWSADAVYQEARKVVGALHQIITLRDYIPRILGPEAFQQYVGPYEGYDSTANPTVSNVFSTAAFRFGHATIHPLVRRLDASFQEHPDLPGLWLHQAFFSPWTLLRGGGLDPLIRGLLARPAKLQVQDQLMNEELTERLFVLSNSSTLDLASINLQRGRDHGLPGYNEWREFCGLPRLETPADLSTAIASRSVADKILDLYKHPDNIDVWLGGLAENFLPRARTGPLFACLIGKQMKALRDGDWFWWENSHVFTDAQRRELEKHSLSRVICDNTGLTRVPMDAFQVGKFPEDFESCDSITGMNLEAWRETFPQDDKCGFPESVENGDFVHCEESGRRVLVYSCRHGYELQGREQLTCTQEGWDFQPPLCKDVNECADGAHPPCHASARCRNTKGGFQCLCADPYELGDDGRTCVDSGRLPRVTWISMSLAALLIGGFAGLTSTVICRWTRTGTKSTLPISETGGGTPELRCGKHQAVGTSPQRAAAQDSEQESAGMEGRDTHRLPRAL
Source text: (§2) All Results are representative of duplicate experiments
(§3) To determine whether these analogues are selective for MPO, rather than being a general peroxidase inhibitor, thyroid peroxidase and lactoperoxidase were selected for oxidase evaluation. The effect of MA20 on the halogenation activities of MPO and thyroid peroxidase were compared by following the oxidation of ascorbate in the presence of chloride or iodide.

[3] = test system: human neutrophils; test: HOCl production by PMA-stimulated human neutrophils; assay type: cell-based; settings: 0.5 μM MA20, PMA 110 ng/ml 30 min
Protocol: as §2
The reaction was stopped by 251 μg/ml of catalase and 0.5 μM of MA20, and chlorination activity was measured. […] This effect is strikingly similar to MA20's inhibitory effect on purified MPO (FIG. 7C). […] As such, they prevent the production of HOCl without concomitant release of free radicals.

[4] = test system: HEK293; assay type: cell-based
Source text: (§4) The securinine analog MPO inhibitors have favorable in vitro and in vivo toxicity profiles.

[5] = test system: Skin fibroblast (BJ1); assay type: cell-based
Source text: as §4

[6] = test system: mouse embryonic fibroblast (MEF); assay type: cell-based
Source text: as §4

[7] = in vitro; assay type: in vitro ADME; settings: human, microsomes
Source text: as §4

[8] = target: T1, MPO; test: UV/visible heme absorption spectra of MPO with compound/H2O2; assay type: binding; set-up: purchased Cayman Chemical 700170
Protocol: as §1
It was next set about to investigate the molecular target of the analogs (FIG. 6A). Cultured HL60 cells were treated with either Biotin/Biotin-INVMG1 (securinine) (10 μM) for 2 hr and pull-down experiments using streptavidin magnetic beads were used to pulldown bound molecules, followed by SDS-PAGE analysis (FIG. 6B). […] This 80 kDa protein band was excised, digested with trypsin, and the tryptic digests then analyzed using Mass Spectroscopy. […] The proteins bound to streptavidin beads were next separated using SDS-PAGE and incubated then with anti-human MPO antibody. […] To further confirm the binding of INVMG1 to MPO, the MPO enzyme was incubated with and without INVMG184B/H2O2, and analyzed absorption maxima using UV/visible.

[9] = target: T1, MPO; test: Chlorination assay with purified MPO (HOCl formation, APF fluorescence); assay type: biochemical; set-up: purchased Cayman Chemical 700170
Protocol: as §2
MPO's catalyzed enzymatic reaction consists of multiple stages (FIG. 3). Chlorination occurs when Complex-I produces hypochlorous acid (HOCl) in the presence of a chloride ion. […] Analogue MA20:
(§5) To determine the mechanism of this inhibition, the MPO enzyme was incubated with MA20 in the presence or absence of H2O2 for a set time and determined the reduction in chlorination activity of the enzyme. Residual activity was measured by diluting the reaction mixture by 150 fold. Incubation with either MA20 or H2O2 had minimal MPO inhibitory activity (approximately a 25-30% reduction in chlorination activity, FIG. 7E).

[10] = target: T1, MPO; test: Residual chlorination activity of MPO after incubation with or without H2O2, 150 fold dilution; assay type: biochemical; set-up: purchased Cayman Chemical 700170; settings: FIG. 7E
Protocol: as §2, §5

[11] = target: T1, MPO; test: Oxidation of ascorbate by MPO, H2O2 and chloride; assay type: biochemical; set-up: purchased Cayman Chemical 700170; settings: 1.0 μM, chloride
Source text: as §2, §3

SMILES | nature of interaction with MPO (heme conjugate) [1] | effect on the iodination activity of thyroid peroxidase [2] | PMA-induced HOCl production by neutrophils [3] | toxicity (cell survival) [4] | toxicity (cell survival) [5] | toxicity (cell survival) [6] | half-life [7] [h] | binding with the heme prosthetic group (Soret ~433 nm, peak ~630 nm) [8] | MPO inhibition activity assessed by chlorination activity ([9]; FIG. 7B-C) | inhibition potency (chlorination) versus chloride ion concentration ([9]; FIG. 7D) | mechanism of MPO inhibition ([9]; preliminary data) | MPO activity after addition of compound and H2O2 ([10]; MA20 and H2O2) | reduction in chlorination activity ([10]; incubation with MA20 alone, without H2O2) | oxidation of ascorbate by MPO [11]
O=C1C=C2CC(S(=O)(=O)c3ccccc3)[C@@H]3C[C@@]2(O1)[C@H]1CCCCN31 (some centres unmarked) [INVS-MG-184B] | irreversible | – | – | – | – | – | – | – | – | – | – | – | – | –
O=C1C=C2C(S(=O)(=O)c3ccccc3)C[C@@H]3C[C@@]2(O1)C1CCCCN13 (some centres unmarked) [MA20] | – | negligible | significantly inhibited | significantly lower level of toxicity | significantly lower level of toxicity | significantly lower level of toxicity | ~1.33 | direct binding | highest MPO inhibition activity | decreased with increasing concentrations of the chloride ion | suicidal substrate | completely inhibited | 25-30% | completely blocked
